Reference: US6358885B1, “Substituted phenylheterocyclic herbicides” (Mississippi State University, priority 1992, dated 2002)

Tests used:
Experiment in all cases: Test B preemergence/postemergence greenhouse plant response rating 0 to 10
corn = assay type: in vivo, Zea mays; conditions: for Plant response rating, Corn: 0 to 10 scale
Method in brief: (§1)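 Both application timings were run together: seeds got compound preemergence, and established seedlings (two to eighteen cm) got it postemergence. Non-phytotoxic solvent carried the chemical. Ratings are visual, versus controls, at twelve to sixteen days.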

barnyardgrass = assay type: in vivo, Echinochloa crus-galli; conditions: for Plant response rating, Barnyardgrass: 0 to 10 scale
Method in brief: as §1

barley = assay type: in vivo, Hordeum vulgare; conditions: for Plant response rating, Barley: 0 to 10 scale
Method in brief: as §1

lambsquarters = assay type: in vivo, Chenopodium album; conditions: for Plant response rating, Lambsquarter: 0 to 10 scale
Method in brief: as §1

sugar beet = assay type: in vivo, Beta vulgaris; conditions: for Plant response rating, Sugar beet: 0 to 10 scale
Method in brief: as §1

velvetleaf = assay type: in vivo, Abutilon theophrasti; conditions: for Plant response rating, Velvetleaf: 0 to 10 scale
Method in brief: as §1

wild oat = assay type: in vivo, Avena fatua; conditions: for Plant response rating, Wild oat: 0 to 10 scale
Method in brief: as §1

wheat = assay type: in vivo, Triticum aestivum; conditions: for Plant response rating, Wheat: 0 to 10 scale
Method in brief: as §1

chickweed = assay type: in vivo, Stellaria media; conditions: for Plant response rating, Chickweed: 0 to 10 scale
Method in brief: as §1

wild buckwheat = assay type: in vivo, Polygonum convolvulus; conditions: for Plant response rating, Wild buckwheat: 0 to 10 scale
Method in brief: as §1

morningglory = assay type: in vivo, Ipomoea hederacea; conditions: for Plant response rating, Morningglory: 0 to 10 scale
Method in brief: as §1

cheatgrass = assay type: in vivo, Bromus secalinus; conditions: for Plant response rating, Cheatgrass: 0 to 10 scale
Method in brief: as §1

sorghum = assay type: in vivo, Sorghum bicolor; conditions: for Plant response rating, Sorghum: 0 to 10 scale
Method in brief: as §1

cocklebur = assay type: in vivo, Xanthium pensylvanicum; conditions: for Plant response rating, Cocklebur: 0 to 10 scale
Method in brief: as §1

cotton = assay type: in vivo, Gossypium hirsutum; conditions: for Plant response rating, Cotton: 0 to 10 scale
Method in brief: as §1

giant foxtail = assay type: in vivo, Setaria faberii; conditions: for Plant response rating, Giant foxtail: 0 to 10 scale
Method in brief: as §1

bedstraw = assay type: in vivo, Galium aparine; conditions: for Plant response rating, Bedstraw: 0 to 10 scale
Method in brief: as §1

soybean = assay type: in vivo, Glycine max; conditions: for Plant response rating, Soybean: 0 to 10 scale
Method in brief: as §1

blackgrass = assay type: in vivo, Alopecurus myosuroides; conditions: for Plant response rating, Blackgrass: 0 to 10 scale
Method in brief: as §1

rice = assay type: in vivo, Oryza sativa; conditions: for Plant response rating, Rice: 0 to 10 scale
Method in brief: as §1

crabgrass = assay type: in vivo, Digitaria spp.; conditions: for Plant response rating, Crabgrass: 0 to 10 scale
Method in brief: as §1

purple nutsedge = assay type: in vivo, Cyperus rotundus; conditions: for Plant response rating, Nutsedge: 0 to 10 scale
Method in brief: as §1

rape = assay type: in vivo, Brassica napus; conditions: for Plant response rating, Rape: 0 to 10 scale
Method in brief: as §1

COCOc1cc(-c2nn3c(c2Br)CCCC3)c(F)cc1Cl [Compound 65]
6: Plant response rating, Barley (barley; Rate 200 g/ha, POSTEMERGENCE) | Plant response rating, Wheat (wheat; POSTEMERGENCE, Rate 50 g/ha) | Plant response rating, Cheatgrass (cheatgrass; Rate 200 g/ha, POSTEMERGENCE) | Plant response rating, Sorghum (sorghum; POSTEMERGENCE, Rate 50 g/ha) | Plant response rating, Giant foxtail (giant foxtail; PREEMERGENCE, Rate 50 g/ha) | Plant response rating, Rice (rice; Rate 200 g/ha, POSTEMERGENCE)
7: Plant response rating, Barnyardgrass (barnyardgrass; POSTEMERGENCE, Rate 50 g/ha) | Plant response rating, Wild oat (wild oat; POSTEMERGENCE, Rate 50 g/ha) | Plant response rating, Wild oat (wild oat; Rate 200 g/ha, POSTEMERGENCE) | Plant response rating, Sorghum (sorghum; Rate 200 g/ha, POSTEMERGENCE) | Plant response rating, Blackgrass (blackgrass; POSTEMERGENCE, Rate 50 g/ha) | Plant response rating, Blackgrass (blackgrass; PREEMERGENCE, Rate 50 g/ha) | Plant response rating (0 to 10 scale), Blackgrass (blackgrass; PREEMERGENCE, Rate 200 g/ha) | Plant response rating, Blackgrass (blackgrass; Rate 200 g/ha, POSTEMERGENCE) | Plant response rating, Crabgrass (crabgrass; Rate 200 g/ha, POSTEMERGENCE)
1: Plant response rating, Chickweed (chickweed; PREEMERGENCE, Rate 50 g/ha) | Plant response rating, Rice (rice; PREEMERGENCE, Rate 50 g/ha)
2: Plant response rating (0 to 10 scale), Barley (barley; PREEMERGENCE, Rate 200 g/ha) | Plant response rating, Wild oat (wild oat; PREEMERGENCE, Rate 50 g/ha) | Plant response rating (0 to 10 scale), Morningglory (morningglory; PREEMERGENCE, Rate 200 g/ha) | Plant response rating, Cheatgrass (cheatgrass; PREEMERGENCE, Rate 50 g/ha) | Plant response rating (0 to 10 scale), Soybean (soybean; PREEMERGENCE, Rate 200 g/ha) | Plant response rating, Crabgrass (crabgrass; PREEMERGENCE, Rate 50 g/ha) | Plant response rating (0 to 10 scale), Crabgrass (crabgrass; PREEMERGENCE, Rate 200 g/ha)
0: Plant response rating, Corn (corn; PREEMERGENCE, Rate 50 g/ha) | Plant response rating, Barley (barley; PREEMERGENCE, Rate 50 g/ha) | Plant response rating, Wheat (wheat; PREEMERGENCE, Rate 50 g/ha) | Plant response rating, Morningglory (morningglory; PREEMERGENCE, Rate 50 g/ha) | Plant response rating, Sorghum (sorghum; PREEMERGENCE, Rate 50 g/ha) | Plant response rating (0 to 10 scale), Sorghum (sorghum; PREEMERGENCE, Rate 200 g/ha) | Plant response rating, Cocklebur (cocklebur; PREEMERGENCE, Rate 50 g/ha) | Plant response rating, Cotton (cotton; PREEMERGENCE, Rate 50 g/ha) | Plant response rating, Soybean (soybean; PREEMERGENCE, Rate 50 g/ha) | Plant response rating, Nutsedge (purple nutsedge; PREEMERGENCE, Rate 50 g/ha) | Plant response rating (0 to 10 scale), Nutsedge (purple nutsedge; PREEMERGENCE, Rate 200 g/ha) | Plant response rating, Rape (rape; PREEMERGENCE, Rate 50 g/ha)
9: Plant response rating (0 to 10 scale), Barnyardgrass (barnyardgrass; PREEMERGENCE, Rate 200 g/ha) | Plant response rating, Barnyardgrass (barnyardgrass; Rate 200 g/ha, POSTEMERGENCE) | Plant response rating, Sugar beet (sugar beet; PREEMERGENCE, Rate 50 g/ha) | Plant response rating, Velvetleaf (velvetleaf; PREEMERGENCE, Rate 50 g/ha) | Plant response rating (0 to 10 scale), Velvetleaf (velvetleaf; PREEMERGENCE, Rate 200 g/ha) | Plant response rating, Chickweed (chickweed; Rate 200 g/ha, POSTEMERGENCE) | Plant response rating, Rape (rape; Rate 200 g/ha, POSTEMERGENCE)
10: Plant response rating, Lambsquarter (lambsquarters; POSTEMERGENCE, Rate 50 g/ha) | Plant response rating, Lambsquarter (lambsquarters; PREEMERGENCE, Rate 50 g/ha) | Plant response rating (0 to 10 scale), Lambsquarter (lambsquarters; PREEMERGENCE, Rate 200 g/ha) | Plant response rating, Lambsquarter (lambsquarters; Rate 200 g/ha, POSTEMERGENCE) | Plant response rating, Sugar beet (sugar beet; POSTEMERGENCE, Rate 50 g/ha) | Plant response rating (0 to 10 scale), Sugar beet (sugar beet; PREEMERGENCE, Rate 200 g/ha) | Plant response rating, Sugar beet (sugar beet; Rate 200 g/ha, POSTEMERGENCE) | Plant response rating, Velvetleaf (velvetleaf; POSTEMERGENCE, Rate 50 g/ha) | Plant response rating, Velvetleaf (velvetleaf; Rate 200 g/ha, POSTEMERGENCE) | Plant response rating, Wild buckwheat (wild buckwheat; POSTEMERGENCE, Rate 50 g/ha) | Plant response rating, Wild buckwheat (wild buckwheat; PREEMERGENCE, Rate 50 g/ha) | Plant response rating (0 to 10 scale), Wild buckwheat (wild buckwheat; PREEMERGENCE, Rate 200 g/ha) | Plant response rating, Wild buckwheat (wild buckwheat; Rate 200 g/ha, POSTEMERGENCE) | Plant response rating, Morningglory (morningglory; POSTEMERGENCE, Rate 50 g/ha) | Plant response rating, Morningglory (morningglory; Rate 200 g/ha, POSTEMERGENCE) | Plant response rating, Cocklebur (cocklebur; POSTEMERGENCE, Rate 50 g/ha) | Plant response rating, Cocklebur (cocklebur; Rate 200 g/ha, POSTEMERGENCE) | Plant response rating, Cotton (cotton; POSTEMERGENCE, Rate 50 g/ha) | Plant response rating, Cotton (cotton; Rate 200 g/ha, POSTEMERGENCE) | Plant response rating (0 to 10 scale), Giant foxtail (giant foxtail; PREEMERGENCE, Rate 200 g/ha) | Plant response rating, Bedstraw (bedstraw; POSTEMERGENCE, Rate 50 g/ha) | Plant response rating, Bedstraw (bedstraw; Rate 200 g/ha, POSTEMERGENCE) | Plant response rating (0 to 10 scale), Rape (rape; PREEMERGENCE, Rate 200 g/ha)
4: Plant response rating, Corn (corn; POSTEMERGENCE, Rate 50 g/ha) | Plant response rating (0 to 10 scale), Corn (corn; PREEMERGENCE, Rate 200 g/ha) | Plant response rating, Barnyardgrass (barnyardgrass; PREEMERGENCE, Rate 50 g/ha) | Plant response rating (0 to 10 scale), Cheatgrass (cheatgrass; PREEMERGENCE, Rate 200 g/ha) | Plant response rating (0 to 10 scale), Cocklebur (cocklebur; PREEMERGENCE, Rate 200 g/ha) | Plant response rating (0 to 10 scale), Cotton (cotton; PREEMERGENCE, Rate 200 g/ha) | Plant response rating, Crabgrass (crabgrass; POSTEMERGENCE, Rate 50 g/ha) | Plant response rating, Nutsedge (purple nutsedge; Rate 200 g/ha, POSTEMERGENCE)
8: Plant response rating (0 to 10 scale), Wild oat (wild oat; PREEMERGENCE, Rate 200 g/ha) | Plant response rating, Giant foxtail (giant foxtail; Rate 200 g/ha, POSTEMERGENCE) | Plant response rating, Soybean (soybean; Rate 200 g/ha, POSTEMERGENCE) | Plant response rating, Rape (rape; POSTEMERGENCE, Rate 50 g/ha)
3: Plant response rating, Barley (barley; POSTEMERGENCE, Rate 50 g/ha) | Plant response rating (0 to 10 scale), Chickweed (chickweed; PREEMERGENCE, Rate 200 g/ha) | Plant response rating, Cheatgrass (cheatgrass; POSTEMERGENCE, Rate 50 g/ha) | Plant response rating (0 to 10 scale), Rice (rice; PREEMERGENCE, Rate 200 g/ha) | Plant response rating, Nutsedge (purple nutsedge; POSTEMERGENCE, Rate 50 g/ha)
5: Plant response rating, Corn (corn; Rate 200 g/ha, POSTEMERGENCE) | Plant response rating (0 to 10 scale), Wheat (wheat; PREEMERGENCE, Rate 200 g/ha) | Plant response rating, Wheat (wheat; Rate 200 g/ha, POSTEMERGENCE) | Plant response rating, Chickweed (chickweed; POSTEMERGENCE, Rate 50 g/ha) | Plant response rating, Giant foxtail (giant foxtail; POSTEMERGENCE, Rate 50 g/ha) | Plant response rating, Bedstraw (bedstraw; PREEMERGENCE, Rate 50 g/ha) | Plant response rating (0 to 10 scale), Bedstraw (bedstraw; PREEMERGENCE, Rate 200 g/ha) | Plant response rating, Rice (rice; POSTEMERGENCE, Rate 50 g/ha)
